Data from the supplement of paper PMC7661543.
± gives the standard deviation of the averaged measurements.

Experiments:
Experiment in all cases: relative cell number vs DMSO control (72 h) (% of DMSO); higher = less growth inhibition (more cells)
Details in all cases: sgRNA knockout: sgNT
[1] = tested on: MDA-MB-231
Protocol: (§1)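 QMAP-Seq: a pool of 5 breast cancer cell lines (ZR-75-1, SKBR3, HCC-38, MDA-MB-231, BT-20), each carrying 12 doxycycline-inducible Cas9 sgRNA perturbations (11 knockouts plus non-targeting sgNT), was treated with compounds for 72 h at four 10-fold doses (10 nM-10 uM or 1 nM-1 uM range). Barcodes were amplified and sequenced, and cell number was interpolated from 293T spike-in standard curves. The result is expressed as % of the median of DMSO wells. Two biological replicates.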

[2] = tested on: BT-20
Protocol: as §1

[3] = tested on: ZR-75-1
Protocol: as §1

[4] = tested on: SKBR3
Protocol: as §1

[5] = tested on: HCC-38
Protocol: as §1

SMILES	relative cell number ([1]; 10 nM)	relative cell number ([1]; 100 nM)	relative cell number ([1]; 1000 nM)	relative cell number ([1]; 10000 nM)	relative cell number ([2]; 10 nM)	relative cell number ([2]; 100 nM)	relative cell number ([2]; 1000 nM)	relative cell number ([2]; 10000 nM)	relative cell number ([3]; 10 nM)	relative cell number ([3]; 100 nM)	relative cell number ([3]; 1000 nM)	relative cell number ([3]; 10000 nM)	relative cell number ([4]; 10 nM)	relative cell number ([4]; 100 nM)	relative cell number ([4]; 1000 nM)	relative cell number ([4]; 10000 nM)	relative cell number ([5]; 10 nM)	relative cell number ([5]; 100 nM)	relative cell number ([5]; 1000 nM)	relative cell number ([5]; 10000 nM)
O=C(CCc1ccc(O)cc1)c1c(O)cc(O)cc1O [Phloretin]	83.2 ± 2.8	103 ± 20	127 ± 16	106.6 ± 0.71	102 ± 36	105 ± 16	96.7 ± 8.2	107 ± 15	91.1 ± 42	100 ± 55	74 ± 11	112 ± 13	76.3 ± 4.5	76.5 ± 1	100 ± 1.3	90.5 ± 3.9	104 ± 10	105 ± 7	101 ± 13	113 ± 11
Cc1ccc(C(=O)Cn2c3c(sc2=N)CCCC3)cc1 [PifithrinAlpha]	114 ± 41	85.3 ± 57	94.3 ± 30	57.2 ± 3.8	135 ± 2.2	95.61 ± 0.61	103 ± 1.8	77.5 ± 1.6	121 ± 13	90.9 ± 20	61.5 ± 23	37.7 ± 11	133 ± 10	84.2 ± 16	85.6 ± 2.5	67.1 ± 6.8	91.7 ± 2.4	91.4 ± 4.6	83.2 ± 14	90.2 ± 8.3
c1ccc2c(Oc3nc(Nc4ccc(N5CCOCC5)cc4)c4ncn(C5CCCCC5)c4n3)cccc2c1 [Purmorphamine]	95.7 ± 9.6	75.6 ± 12	97 ± 66	52 ± 8.8	84.2 ± 13	99.65 ± 0.55	85.43 ± 0.29	79.3 ± 11	97.6 ± 49	84.6 ± 39	92.7 ± 11	52.3 ± 1.9	96.9 ± 34	124 ± 43	75.9 ± 29	51.1 ± 11	99.2 ± 3.6	95.6 ± 7.1	90.2 ± 1.9	71.8 ± 6.4
O=C(O)C(Cc1c[nH]c2ccccc12)N1C(=O)c2ccccc2C1=O (stereo not given) [RG108]	96.8 ± 28	96.5 ± 4	80.5 ± 17	79.7 ± 30	82.3 ± 16	70.3 ± 4.6	102 ± 4.9	102 ± 14	94.8 ± 3.9	76.2 ± 6.3	98.5 ± 2.5	71.4 ± 41	97.1 ± 11	64.7 ± 21	81 ± 16	73.2 ± 5.8	87.6 ± 8	88.2 ± 2.6	83.03 ± 0.26	97.2 ± 1.7
CNC(=O)c1cc(Oc2ccc(NC(=O)Nc3ccc(Cl)c(C(F)(F)F)c3)c(F)c2)ccn1 [Regorafenib]	102 ± 13	114.3 ± 0.95	94.3 ± 26	32.7 ± 7.6	94.2 ± 7.3	94.9 ± 19	116 ± 46	42.7 ± 9.8	81.3 ± 52	68.8 ± 21	98.2 ± 40	22.1 ± 1.5	84.4 ± 8.2	98.8 ± 11	101 ± 16	38.2 ± 5	105.7 ± 0.71	113 ± 7.7	110 ± 2.3	61.9 ± 11
